Measurements from patent US9796676B2, “Honeybee repellents and uses thereof” (Inscent, Inc., priority 2013, dated 2017).

How the values were obtained:
[1] = test system: OBP2; assay: Fluorescent-quench ligand-protein-binding assay (OBP2 binding); parameters: species or system Apis mellifera
Source text: To identify a honeybee repellent disclosed herein, candidate compounds were screened based upon the fact that 2-heptanone is an established repellent of bees. 2-heptanone is thought to mediate its behavioral response through binding to a specific odorant-binding protein called OBP2. […] Such assays are generally known in the art. See, e.g., Briand, et al., Ligand-Binding Properties and Structural Characterization of a Novel Rat Odorant-Binding Protein Variant, Eur. J. Biochem. 267(10): 3079-3089 (2000); Briand, et al., Ligand Binding and Physico-Chemical Properties of ASP2, A Recombinant Odorant-Binding Protein From Honeybee (Apis mellifera L.), Eur. J. Biochem. 268(3): 752-760 (2001); Briand, et al., Characterization of a Chemosensory Protein (ASP3c) from Honeybee (Apis mellifera L.) as a Brood Pheromone Carrier, Eur. J. Biochem. 269(18): 4586-4596 (2002), each of which is hereby incorporated by reference in its entirety.

[2] = test system: Apis mellifera Carniolan foraging worker honeybees; assay: Choice test in a free-flight box apparatus; format: in vivo
Source text: To determine whether living honeybees will choice to move towards a source of a candidate compound, these compounds will be assayed using a choice test in a free-flight box apparatus.
All tests will be done in a free-flight box apparatus. The apparatus comprises a 244 cm long×46 cm deep×30 cm high clear plastic box including two equally-sized independent testing chambers, each with 10 cm diameter air inlets that admit filtered room air, separated by a smaller central chamber with a screened air outlet to each testing chamber. Air can be pulled through the sealed box via a 10 cm diameter duct from the air outlet using an AQE Fume Fighter 500 fume extractor (BPA Air Quality Solutions, LLC, Charleston, S.C.), which removes the test odors using activated charcoal and HEPA filters. The box is housed in an environmentally controlled room with overhead illumination timed to correspond to the current ambient light cycle including 2 additional sets of lights timed to approximate crepuscular lighting conditions. The bottom of the apparatus will be lined with clean absorbent paper marked with a 4×9 grid pattern, forming 12 cm×12 cm squares with marked coordinates.
Apis mellifera Carniolan foraging worker honeybees will be obtained from a local apiary (typically 60 bees per shipment). Thirty honeybees will be put into each testing chamber and will be allowed to acclimate for 24 hours with food and water freely available. At the beginning of each test day all food will be removed from the test chamber, but water will be continually available throughout all tests. For each test, approximately 0.3 g of organic, raw orange blossom honey will be added to each clean small plastic weigh boat (Cole-Palmer). The honey boats will be placed in small plastic culture dishes, which will be distributed in the marked squares in the chambers. The positions of the dishes on the grid for a set of trials will be chosen to avoid the bees' preferred resting area so that they will have to find the food actively, but the same dish positions will be maintained for a given set of trials. We will use seven dishes of honey: six to which the bees will have access and a seventh that will have a screened lid. The honey in each boat will be weighed on an analytical balance before and after the test, with the screened sample as a control for evaporative loss. The fume extractor will be left off during the experimental trails, and will be turned on to clear the air after the test dishes are covered and removed from the chamber at the end of each trial.
Based on the observation that bees tend to return to dishes in the same position where they have fed before, each set of trials with each group of bees began with “Pattern Identification” tests to see which dishes lose the most weight, reflecting the most feeding. Once bees are consuming an acceptable amount in 10-15 min, typically in 1-2 trials, a set of test compound trials will begin. The test compound will be pipetted onto pieces of filter paper placed on the dish bottom below the boat containing a fresh, weighed honey sample so that the test compound will be inaccessible to the bees. We used 2 μL of a candidate compound at a concentration of 0.05-0.5%, in Triton X-100 or paraffin oil, on each of four pieces of filter paper per dish. The test-solution dishes will be set at the same positions as the one or two dishes favored in the preceding Pattern Identification trial. To eliminate interference from the solvent, the other dishes without the test substance will contain the same volume of the appropriate solvent on filter papers as the test solution dishes. The bees will be allowed to feed for 10-15 minutes. Bee movements will be recorded by a small, wide-angle digital video camcorder (HD Hero 960; GoPro, Halfmoon Bay, Calif.) placed on a tripod in front of the test chamber. […]

[3] = test system: Apis mellifera Carniolan foraging worker honeybees; assay: Proboscis extension response (PER) assay with bees conditioned to 2-heptanone; format: in vivo; conditions: 0.5% compound in Triton X-100/water on filter paper, 4 s exposure; only bees giving PER with 2-heptanone and not with water or 15% Triton X-100 controls counted
Procedure: To determine whether a living honeybee can recognize a candidate compound, these compounds were tested using a proboscis extension response (PER) assay using classical conditioning approaches. Proboscis extension response conditioning is a case of appetitive learning, in which bees learn to associate odor stimuli with sucrose reward in the laboratory. In this case, bees were conditioned to produce a PER to 2-heptanone as the conditioned stimulus and a sugar reward as the unconditioned stimulus. These trained bees were then exposed to an odor pulse of a candidate compound to test whether a candidate compound would also produce a PER. If the candidate compound “mimics” 2-heptanone then the honeybee will extend its proboscis.
For conditioning procedures, Apis mellifera Carniolan foraging worker honeybees were obtained from a local apiary (typically 60 bees per shipment). The honeybees were held overnight in insect cages with food and water freely available, in an environmentally controlled room on a light cycle similar to the ambient cycle at the time of the assay.
For conditioning procedures, all tests were done in an odorant delivery apparatus set inside a fume hood. The apparatus comprised a set of open-ended, horizontal, 3 cm diameter by 10 cm long plastic tubes. Each tube was designed where a honeybee could be positioned at the distal end of a tube, with the opening at the other end of the tube located proximal to an inlet of the fume hood. To deliver an odorant, room air was pumped by a diaphragm pump through a particle filter via 0.25 inch plastic tubing at approximately 0.7 m/sec. The air flow passes into the headspace above an odorant (0.5% [v/v] 2-heptanone dissolved in odorless light paraffin oil) contained in a 100 mL bottle. The headspace air then passes through another plastic tube to a manifold of 4-way valves, each of which was attached near the proximal end of a plastic tube containing a bee. Each bee was exposed separately for a desired time period to the odorant by opening and closing the appropriate valve. When each valve was closed, the odor was flushed away immediately by the continuous fume hood air stream.
To train a honeybee to respond to a conditioned and unconditioned stimuli, bees were placed, without anesthesia, in individual 1.5 mL micro-centrifuge holding tubes and held overnight without access to food or water. The holding tubes containing the starved bees were placed in racks in groups of eight. One rack at a time was placed behind the odorant delivery apparatus so that each bee's head is centered at the distal end of a horizontal plastic tube. Each bee was exposed to the 2-heptanone odorant alone for four seconds, and then while being fed an 80% sucrose solution for and additional three seconds. The sucrose solution was delivered on a piece of saturated filter paper held in forceps. […] Positive and negative responses were recorded. A positive PER was scored when a bee extended its proboscis before the sucrose appeared. In a typical trial, 48 individual bees were subjected to conditioning.
After conditioning, honeybees were tested with the candidate compounds the same day or on the following day or, most commonly, both. When held overnight, bees were fed with sucrose and kept in their holding tubes. When tested the day after training, bees were given one or more rounds of conditioning with 2-heptatone to refresh their memories. Candidate compounds stocks were made at 5% (w/v) in polyoxyethylene octyl phenyl ether (TRITON® X-100), a non-ionic detergent/surfactant, and stored at 4° C. […] Test solutions were made fresh daily by mixing stock solutions with water for a final compound concentration of 0.5%. A solution of 0.5% 2-heptanone in paraffin oil was used as a positive control.

Row | Structure (SMILES) | OBP2 binding characteristic of compound [1] | P (probability that a honeybee will return to a test dish, nP divided by n) ([2]; control likelihood without compound 47.5%) | nP (number of tests a honeybee returned to a preferred test dish) ([2]; free-flight box, 2 μL of 0.05-0.5% compound on filter papers under honey dish) | 2-heptanone positive bees testing positive to compound [3] [%]
1 | COc1cc(C2N=C(c3ccccc3)N=C(c3ccccc3)N2)ccc1O (stereo not drawn) [compound 67, 4-(4,6-diphenyl-1,2-dihydro-1,3,5-triazin-2-yl)-2-methoxyphenol] | Moderate (Moderate, indicates that 50% or less of the compound bound to OBP2.) | 0.321 | 9 | 26.5
2 | C(=NN(c1ccccc1)c1ccccc1)c1ccncc1 [compound 92] | Moderate (Moderate, indicates that 50% or less of the compound bound to OBP2.) |  |  | 7.0
3 | Oc1ccc(Br)cc1C=Nc1ccc(NCc2ccccc2)cc1 [compound 87] | Moderate (Moderate, indicates that 50% or less of the compound bound to OBP2.) |  |  | 9.5
4 | O=C1CSC(=O)N1CC(O)Cn1c2ccc(Cl)cc2c2cc(Cl)ccc21 (stereo not drawn) [compound 72] | Moderate (Moderate, indicates that 50% or less of the compound bound to OBP2.) |  |  | 2.3
5 | CCN(CC)C(=O)c1c(NC(=O)c2ccco2)sc2c1CCCCC2 [compound 97] | Moderate (Moderate, indicates that 50% or less of the compound bound to OBP2.) |  |  | 21.1
6 | Nc1cccc2nc3c4cccc5cccc(c(=O)n3c12)c54 [compound 109] | Moderate (Moderate, indicates that 50% or less of the compound bound to OBP2.) |  |  | 12.1
7 | O=C1CSC(=CC(=O)c2ccc(Cl)cc2)N1 [compound 111] | Moderate (Moderate, indicates that 50% or less of the compound bound to OBP2.) |  |  | 30.6
8 | Cc1[nH]c2ccccc2c1C=NNC(=O)c1cccc(I)c1 [compound 103] | Moderate (Moderate, indicates that 50% or less of the compound bound to OBP2.) |  |  | 32.4
9 | Cc1cc(C)c2ccc(C=Cc3ccccc3N)nc2c1O [compound 90] | Moderate (Moderate, indicates that 50% or less of the compound bound to OBP2.) |  |  | 17.0
10 | O=C(Nc1sc2c(c1C(=O)N1CCCCC1)CCCCC2)c1ccccc1 [compound 99] | Moderate (Moderate, indicates that 50% or less of the compound bound to OBP2.) |  |  | 29.0
11 | CC(C)CCn1c(=O)c(C(=O)NCc2ccco2)c(O)c2ccccc21 [compound 95] | Moderate (Moderate, indicates that 50% or less of the compound bound to OBP2.) |  |  | 7.3
12 | CCOC(=O)CSc1nc2c(c(=O)n1-c1ccccc1)C1(CCCC1)Cc1ccccc1-2 [compound 71] | Moderate (Moderate, indicates that 50% or less of the compound bound to OBP2.) |  |  | 19.1
13 | O=C(c1ccccc1)N1N=C(c2ccccc2)CC1(O)C(F)(F)F (stereo not drawn) [compound 119] | Moderate (Moderate, indicates that 50% or less of the compound bound to OBP2.) |  |  | 60.0
14 | O=C1CCC(=O)N1CC(O)Cn1c2ccc(Br)cc2c2cc(Br)ccc21 (stereo not drawn) [compound 93] | Moderate (Moderate, indicates that 50% or less of the compound bound to OBP2.) |  |  | 14.0
15 | c1ccn(-c2ncnc3sc4c(c23)CCCC4)c1 [compound 77] | Moderate (Moderate, indicates that 50% or less of the compound bound to OBP2.) |  |  | 14.3
16 | NC(=O)c1ccccc1NC(=O)c1sc2ccccc2c1Cl [compound 94] | Moderate (Moderate, indicates that 50% or less of the compound bound to OBP2.) |  |  | 16.7
17 | O=c1nc(C(F)(F)F)cc(C=Cc2ccc(-c3cccc(Cl)c3)o2)[nH]1 [compound 108] | Moderate (Moderate, indicates that 50% or less of the compound bound to OBP2.) |  |  | 16.2
18 | CCN1C(=O)C(=Cc2cc(Br)ccc2OC)SC1=S [compound 115] | Moderate (Moderate, indicates that 50% or less of the compound bound to OBP2.) |  |  | 40.0
19 | O=C1C=Cc2ccccc2C1=NNc1ccc2c(c1)OCCO2 [compound 105] | Moderate (Moderate, indicates that 50% or less of the compound bound to OBP2.) |  |  | 24.3
20 | O=C1c2ccccc2C(=O)c2c1ccc1c(=O)n(C3CCCCC3)[nH]c21 [compound 88] | Moderate (Moderate, indicates that 50% or less of the compound bound to OBP2.) |  |  | 14.3
